Source: patent US9833497B2, “Human originated EGF domain proteins and use of the same” (CHENGDU SOURCEBIO LIMITED-LIABILITY COMPANY, priority 2013, dated 2017)

What was measured:
Assay type in all cases: cell-based
[1] = tested on: E. coli DH5α; experiment: Antibacterial activity: MIC and growth curve against E. coli DH5α in 96-well plate; details: minimal inhibitory concentration against E. coli DH5α; 96-well plate, 5×10^5 CFU/mL, 37° C., judged after 8 h
How it was run: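 MIC taken as lowest protein level with no bacterial growth, tracked by A600 every 30 min during 37 °C, 175 rpm culture. Two-fold protein series 50-12.5 μg/mL final, triplicate wells, against 5×10^5 CFU/mL of LB-washed mid-log cells.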

[2] = tested on: E. coli BL21; experiment: MIC against Gram-negative bacteria: E. coli BL21; details: 5×10^5 CFU/mL
How it was run: (§1)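 Read-out is absence of bacterial growth, with MIC set at the lowest recombinant protein concentration achieving it. Bacteria, pre-grown in LB to McFarland 0.5 and resuspended, were exposed at 5×10^5 CFU/mL to two-fold diluted human EGF domain proteins in triplicate at 37° C, 175 rpm.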

[3] = tested on: Pseudomonas aeruginosa; experiment: MIC against Gram-negative bacteria: Pseudomonas aeruginosa; details: 5×10^5 CFU/mL
How it was run: as §1

[4] = tested on: Klebsiella pneumonia; experiment: MIC against Gram-negative bacteria: Klebsiella pneumonia; details: 5×10^5 CFU/mL
How it was run: as §1

[5] = tested on: Enterobacter cloacae; experiment: MIC against Gram-negative bacteria: Enterobacter cloacae; details: 5×10^5 CFU/mL
How it was run: as §1

[6] = tested on: Aeromonas hydrophila; experiment: MIC against Gram-negative bacteria: Aeromonas hydrophila; details: 5×10^5 CFU/mL
How it was run: as §1

[7] = tested on: Citrobacter diversus; experiment: MIC against Gram-negative bacteria: Citrobacter diversus; details: 5×10^5 CFU/mL
How it was run: as §1

[8] = tested on: Moraxella catarrhalis; experiment: MIC against Gram-negative bacteria: Moraxella catarrhalis; details: 5×10^5 CFU/mL
How it was run: as §1

[9] = tested on: Proteus mirabilis; experiment: MIC against Gram-negative bacteria: Proteus mirabilis; details: 5×10^5 CFU/mL
How it was run: as §1

[10] = tested on: Proteus vulgaris; experiment: MIC against Gram-negative bacteria: Proteus vulgaris; details: 5×10^5 CFU/mL
How it was run: as §1

[11] = tested on: Serratia marcescens; experiment: MIC against Gram-negative bacteria: Serratia marcescens; details: 5×10^5 CFU/mL
How it was run: as §1

[12] = 10 h cultivation at 37° C., two-fold serial dilution
[13] = P. aeruginosa, 10 h cultivation at 37° C.
[14] = K. pneumonia, 10 h cultivation at 37° C.
[15] = E. cloacae, 10 h cultivation at 37° C.
[16] = A. hydrophila, 10 h cultivation at 37° C.
[17] = C. diversus, 10 h cultivation at 37° C.
[18] = M. catarrhalis, 10 h cultivation at 37° C.
[19] = P. mirabilis, 10 h cultivation at 37° C.
[20] = P. vulgaris, 10 h cultivation at 37° C.
[21] = S. marcescens, 10 h cultivation at 37° C.
[22] = Pseudomonas aeruginosa, 96-well plate, 37° C., 10 h
[23] = Klebsiella pneumonia, 96-well plate, 37° C., 10 h
[24] = Enterobacter cloacae, 96-well plate, 37° C., 10 h
[25] = Aeromonas hydrophila, 96-well plate, 37° C., 10 h
[26] = Citrobacter diversus, 96-well plate, 37° C., 10 h
[27] = Moraxella catarrhalis, 96-well plate, 37° C., 10 h
[28] = Proteus mirabilis, 96-well plate, 37° C., 10 h
[29] = Proteus vulgaris, 96-well plate, 37° C., 10 h
[30] = Serratia marcescens, 96-well plate, 37° C., 10 h

PRT1126 (DVRACSSAPCANNRTCVSLDDGLYECSCAPGYSGKDCQ; listed as Homo sapiens)
MIC [1]: 25 µg/mL
MIC E. coli BL21 [2, 12]: 50 µg/mL
MIC P. aeruginosa [3, 12]: 25 µg/mL
MIC K. pneumonia [4, 12]: 12.5 µg/mL
MIC E. cloacae [5, 12]: 25 µg/mL
MIC A. hydrophila [6, 12]: 25 µg/mL
MIC C. diversus [7, 12]: 50 µg/mL
MIC M. catarrhalis [8, 12]: 12.5 µg/mL
MIC P. mirabilis [9, 12]: 50 µg/mL
MIC P. vulgaris [10, 12]: 12.5 µg/mL
MIC S. marcescens [11, 12]: 50 µg/mL

PRT802 (SNRCQCQNGALCNPITGACVCAAGFRGWRCE; listed as Homo sapiens)
MIC [1]: 12.5 µg/mL
MIC (μg/mL) E. coli BL21 ([2]; 10 h cultivation at 37° C.): 12.5 µg/mL
MIC (μg/mL) P. aeruginosa [3, 13]: 25 µg/mL
MIC (μg/mL) K. pneumonia [4, 14]: 12.5 µg/mL
MIC (μg/mL) E. cloacae [5, 15]: 12.5 µg/mL
MIC (μg/mL) A. hydrophila [6, 16]: 12.5 µg/mL
MIC (μg/mL) C. diversus [7, 17]: 25 µg/mL
MIC (μg/mL) M. catarrhalis [8, 18]: 12.5 µg/mL
MIC (μg/mL) P. mirabilis [9, 19]: 25 µg/mL
MIC (μg/mL) P. vulgaris [10, 20]: 25 µg/mL
MIC (μg/mL) S. marcescens [11, 21]: 12.5 µg/mL

PRT801 (FGYGCQQLCECMNNSTCDHVTGTCYCSPGFKGIRCD; listed as Homo sapiens)
MIC [1]: 25 µg/mL
MIC (μg/mL) E. coli BL21 ([2]; 10 h cultivation at 37° C.): 12.5 µg/mL
MIC (μg/mL) P. aeruginosa [3, 13]: 50 µg/mL
MIC (μg/mL) K. pneumonia [4, 14]: 25 µg/mL
MIC (μg/mL) E. cloacae [5, 15]: 12.5 µg/mL
MIC (μg/mL) A. hydrophila [6, 16]: 25 µg/mL
MIC (μg/mL) C. diversus [7, 17]: 12.5 µg/mL
MIC (μg/mL) M. catarrhalis [8, 18]: 12.5 µg/mL
MIC (μg/mL) P. mirabilis [9, 19]: 12.5 µg/mL
MIC (μg/mL) P. vulgaris [10, 20]: 12.5 µg/mL
MIC (μg/mL) S. marcescens [11, 21]: 12.5 µg/mL

PRT1209 (ATEDCASNPCQNGGVCNPSPAGGYYCKCSALYIGTHCE; listed as Homo sapiens)
MIC [1]: 50 µg/mL
MIC against E. coli BL21 ([2]; 96-well plate, 37° C., 10 h): 12.5 µg/mL
MIC against P. aeruginosa [3, 22]: 25 µg/mL
MIC against K. pneumonia [4, 23]: 50 µg/mL
MIC against E. cloacae [5, 24]: 25 µg/mL
MIC against A. hydrophila [6, 25]: 12.5 µg/mL
MIC against C. diversus [7, 26]: 25 µg/mL
MIC against M. catarrhalis [8, 27]: 12.5 µg/mL
MIC against P. mirabilis [9, 28]: 12.5 µg/mL
MIC against P. vulgaris [10, 29]: 25 µg/mL
MIC against S. marcescens [11, 30]: 12.5 µg/mL

PRT128 (CLPSYCEHGGECSQSWDTFSCDCLGTGYTGETC; listed as Homo sapiens)
MIC [1]: 12.5 µg/mL
MIC (μg/mL) E. coli BL21 ([2]; 96-well plate, 37° C., 10 h): 25 µg/mL
MIC (μg/mL) P. aeruginosa [3, 22]: 12.5 µg/mL
MIC (μg/mL) K. pneumonia [4, 23]: 25 µg/mL
MIC (μg/mL) E. cloacae [5, 24]: 12.5 µg/mL
MIC (μg/mL) A. hydrophila [6, 25]: 12.5 µg/mL
MIC (μg/mL) C. diversus [7, 26]: 12.5 µg/mL
MIC (μg/mL) M. catarrhalis [8, 27]: 12.5 µg/mL
MIC (μg/mL) P. mirabilis [9, 28]: 12.5 µg/mL
MIC (μg/mL) P. vulgaris [10, 29]: 12.5 µg/mL
MIC (μg/mL) S. marcescens [11, 30]: 50 µg/mL

PRT1440 (DKDECSKDNGGCQHECVNTMGSYMCQCRNGFVLHDNKHDCK; listed as Homo sapiens)
MIC [1]: 12.5 µg/mL
MIC against E. coli BL21 ([2]; 10 h cultivation at 37° C.): 25 µg/mL
MIC against P. aeruginosa ([3]; Pseudomonas aeruginosa, 10 h cultivation at 37° C.): 12.5 µg/mL
MIC against K. pneumonia ([4]; Klebsiella pneumonia, 10 h cultivation at 37° C.): 25 µg/mL
MIC against E. cloacae ([5]; Enterobacter cloacae, 10 h cultivation at 37° C.): 12.5 µg/mL
MIC against A. hydrophila ([6]; Aeromonas hydrophila, 10 h cultivation at 37° C.): 25 µg/mL
MIC against C. diversus ([7]; Citrobacter diversus, 10 h cultivation at 37° C.): 25 µg/mL
MIC against M. catarrhalis ([8]; Moraxella catarrhalis, 10 h cultivation at 37° C.): 12.5 µg/mL
MIC against P. mirabilis ([9]; Proteus mirabilis, 10 h cultivation at 37° C.): 25 µg/mL
MIC against P. vulgaris ([10]; Proteus vulgaris, 10 h cultivation at 37° C.): 12.5 µg/mL
MIC against S. marcescens ([11]; Serratia marcescens, 10 h cultivation at 37° C.): 25 µg/mL

PRT61 (KDECSKDNGGCQQDCVNTFGSYECQCRSGFVLHDNKHDCK; listed as Homo sapiens)
MIC [1]: 12.5 µg/mL
MIC (μg/mL) E. coli BL21 ([2]; 96-well plate, 37° C., 10 h): 50 µg/mL
MIC (μg/mL) P. aeruginosa [3, 22]: 12.5 µg/mL
MIC (μg/mL) K. pneumonia [4, 23]: 12.5 µg/mL
MIC (μg/mL) E. cloacae [5, 24]: 12.5 µg/mL
MIC (μg/mL) A. hydrophila [6, 25]: 12.5 µg/mL
MIC (μg/mL) C. diversus [7, 26]: 25 µg/mL
MIC (μg/mL) M. catarrhalis [8, 27]: 25 µg/mL
MIC (μg/mL) P. mirabilis [9, 28]: 25 µg/mL
MIC (μg/mL) P. vulgaris [10, 29]: 12.5 µg/mL
MIC (μg/mL) S. marcescens [11, 30]: 25 µg/mL
